# Where two headings read alike, the source gives them in different places.
# Assays:
# Format in all cases: cell-based
# CaV3.2 = biological target: T1, CaV3.2 (Homo sapiens, UniProt O95180); assay: High-throughput CaV3.2/Kir2.3 T-type FLIPR fluorescent assay; conditions: Fluo-4 FLIPR, closed or inactivated state not stated
# T1 construct: expressed in transfected cells; host or cells: unnamed doxycycline-inducible cell line
# Summary of the method: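 Doxycycline-induced cells loaded with Fluo-4, preincubated 20 min at 29°C with compound in 2 mM KCl (closed-state) or 7.6 mM KCl (inactivated-state) buffer, pH 7.4. Calcium entry triggered by 12 mM or 14.5 mM KCl respectively; fluorescence read 3 min by FLIPR, IC50 from logistic fit.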
# CaV3.1 = biological target: T2, CaV3.1 (Homo sapiens, UniProt O43497); assay: High-throughput CaV3.1 T-type FLIPR fluorescent assay; conditions: Fluo-4 FLIPR
# T2 construct: expressed in transfected cells; host or cells: unnamed doxycycline-inducible cell line
# Summary of the method: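 Doxycycline-induced CaV3.1 cells were loaded with Fluo-4 at 29 °C and pre-incubated with compound for 20 min at 29 °C in low-Ca2+ buffer (0.001 mM CaCl2, pH 7.2). Calcium entry was triggered by buffer containing 6 mM CaCl2, and Fluo-4 fluorescence was recorded on FLIPR for 3 min. IC50 came from logistic fits.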
# CaV2.2 = biological target: T3, CaV2.2 (Homo sapiens, UniProt Q00975); assay: High-throughput CaV2.2/Kir2.3 FLIPR fluorescent assay; conditions: Fluo-4 FLIPR, closed or inactivated state not stated, read-out: FLIPR data CaV2.2
# T3 construct: expressed in transfected cells; host or cells: unnamed doxycycline-inducible cell line
# T3 sequence (Q00975 whole entry): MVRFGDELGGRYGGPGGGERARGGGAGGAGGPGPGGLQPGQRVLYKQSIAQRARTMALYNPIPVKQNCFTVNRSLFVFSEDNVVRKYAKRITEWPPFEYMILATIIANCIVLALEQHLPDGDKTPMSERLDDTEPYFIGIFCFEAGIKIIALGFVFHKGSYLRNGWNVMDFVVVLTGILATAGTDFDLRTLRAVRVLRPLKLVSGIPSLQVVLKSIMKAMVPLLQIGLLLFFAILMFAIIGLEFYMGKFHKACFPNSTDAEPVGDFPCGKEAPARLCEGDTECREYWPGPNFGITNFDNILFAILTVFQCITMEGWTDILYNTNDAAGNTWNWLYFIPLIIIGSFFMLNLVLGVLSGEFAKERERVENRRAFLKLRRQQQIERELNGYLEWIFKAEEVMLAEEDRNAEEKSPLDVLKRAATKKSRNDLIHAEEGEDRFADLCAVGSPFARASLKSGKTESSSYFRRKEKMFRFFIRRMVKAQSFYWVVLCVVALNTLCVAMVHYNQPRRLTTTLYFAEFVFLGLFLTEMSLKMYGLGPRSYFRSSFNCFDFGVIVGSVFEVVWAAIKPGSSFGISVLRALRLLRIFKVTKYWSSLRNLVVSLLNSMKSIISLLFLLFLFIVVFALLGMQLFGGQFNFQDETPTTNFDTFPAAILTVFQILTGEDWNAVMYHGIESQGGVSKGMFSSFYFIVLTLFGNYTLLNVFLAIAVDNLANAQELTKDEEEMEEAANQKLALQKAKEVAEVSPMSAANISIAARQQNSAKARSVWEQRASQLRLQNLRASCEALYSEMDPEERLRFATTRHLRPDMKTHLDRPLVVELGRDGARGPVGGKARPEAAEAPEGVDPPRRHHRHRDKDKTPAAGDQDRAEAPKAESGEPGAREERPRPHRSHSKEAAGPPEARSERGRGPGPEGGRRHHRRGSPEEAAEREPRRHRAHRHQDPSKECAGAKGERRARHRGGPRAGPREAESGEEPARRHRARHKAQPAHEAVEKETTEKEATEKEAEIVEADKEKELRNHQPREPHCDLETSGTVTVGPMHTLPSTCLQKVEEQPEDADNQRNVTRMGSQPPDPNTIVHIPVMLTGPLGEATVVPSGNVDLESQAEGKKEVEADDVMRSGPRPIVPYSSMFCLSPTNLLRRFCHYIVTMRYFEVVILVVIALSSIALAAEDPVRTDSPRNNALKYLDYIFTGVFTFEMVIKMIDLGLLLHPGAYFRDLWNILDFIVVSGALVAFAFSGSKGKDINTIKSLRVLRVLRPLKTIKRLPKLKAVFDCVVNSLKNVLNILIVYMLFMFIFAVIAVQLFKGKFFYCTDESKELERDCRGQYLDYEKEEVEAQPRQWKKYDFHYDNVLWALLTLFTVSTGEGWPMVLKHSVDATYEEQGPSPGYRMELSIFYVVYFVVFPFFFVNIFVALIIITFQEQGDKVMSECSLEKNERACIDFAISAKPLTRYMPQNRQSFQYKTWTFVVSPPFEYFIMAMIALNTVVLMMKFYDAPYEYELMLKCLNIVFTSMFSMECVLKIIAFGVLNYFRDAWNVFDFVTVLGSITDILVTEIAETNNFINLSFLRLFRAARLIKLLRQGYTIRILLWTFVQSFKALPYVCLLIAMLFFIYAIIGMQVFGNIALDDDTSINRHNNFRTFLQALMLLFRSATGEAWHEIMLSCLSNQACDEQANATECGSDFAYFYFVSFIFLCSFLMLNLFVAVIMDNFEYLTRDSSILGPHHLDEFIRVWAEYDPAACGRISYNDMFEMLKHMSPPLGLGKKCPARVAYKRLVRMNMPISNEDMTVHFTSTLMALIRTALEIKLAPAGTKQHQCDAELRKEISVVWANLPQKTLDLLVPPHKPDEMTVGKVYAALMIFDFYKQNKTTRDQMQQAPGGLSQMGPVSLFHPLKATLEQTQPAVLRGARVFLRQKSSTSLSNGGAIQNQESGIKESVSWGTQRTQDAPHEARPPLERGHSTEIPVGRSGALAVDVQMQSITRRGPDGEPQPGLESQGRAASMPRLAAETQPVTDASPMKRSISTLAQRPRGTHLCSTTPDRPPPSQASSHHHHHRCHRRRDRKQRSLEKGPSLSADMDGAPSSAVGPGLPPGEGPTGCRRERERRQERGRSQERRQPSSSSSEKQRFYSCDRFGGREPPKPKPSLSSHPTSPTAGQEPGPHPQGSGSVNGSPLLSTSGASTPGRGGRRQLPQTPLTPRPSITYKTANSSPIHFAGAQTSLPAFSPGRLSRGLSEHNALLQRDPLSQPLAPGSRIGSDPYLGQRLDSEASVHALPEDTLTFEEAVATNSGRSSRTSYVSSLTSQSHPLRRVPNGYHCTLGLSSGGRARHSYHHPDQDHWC
# T3 sequence (P54284 whole entry partner): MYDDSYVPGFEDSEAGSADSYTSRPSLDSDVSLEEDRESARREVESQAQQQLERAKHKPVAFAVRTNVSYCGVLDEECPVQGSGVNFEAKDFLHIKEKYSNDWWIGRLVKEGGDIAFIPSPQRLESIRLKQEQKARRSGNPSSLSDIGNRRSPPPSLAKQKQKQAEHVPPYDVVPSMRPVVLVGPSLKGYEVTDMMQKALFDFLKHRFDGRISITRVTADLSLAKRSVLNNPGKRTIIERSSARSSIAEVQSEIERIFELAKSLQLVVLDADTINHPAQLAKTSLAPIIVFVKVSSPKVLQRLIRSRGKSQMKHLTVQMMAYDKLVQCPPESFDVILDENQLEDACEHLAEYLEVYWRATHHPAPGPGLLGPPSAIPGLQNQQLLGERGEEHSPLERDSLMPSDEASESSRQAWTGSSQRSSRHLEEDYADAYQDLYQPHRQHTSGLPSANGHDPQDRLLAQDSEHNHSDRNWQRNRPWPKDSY
# T3 sequence (P54289 25-946 partner limits assumed): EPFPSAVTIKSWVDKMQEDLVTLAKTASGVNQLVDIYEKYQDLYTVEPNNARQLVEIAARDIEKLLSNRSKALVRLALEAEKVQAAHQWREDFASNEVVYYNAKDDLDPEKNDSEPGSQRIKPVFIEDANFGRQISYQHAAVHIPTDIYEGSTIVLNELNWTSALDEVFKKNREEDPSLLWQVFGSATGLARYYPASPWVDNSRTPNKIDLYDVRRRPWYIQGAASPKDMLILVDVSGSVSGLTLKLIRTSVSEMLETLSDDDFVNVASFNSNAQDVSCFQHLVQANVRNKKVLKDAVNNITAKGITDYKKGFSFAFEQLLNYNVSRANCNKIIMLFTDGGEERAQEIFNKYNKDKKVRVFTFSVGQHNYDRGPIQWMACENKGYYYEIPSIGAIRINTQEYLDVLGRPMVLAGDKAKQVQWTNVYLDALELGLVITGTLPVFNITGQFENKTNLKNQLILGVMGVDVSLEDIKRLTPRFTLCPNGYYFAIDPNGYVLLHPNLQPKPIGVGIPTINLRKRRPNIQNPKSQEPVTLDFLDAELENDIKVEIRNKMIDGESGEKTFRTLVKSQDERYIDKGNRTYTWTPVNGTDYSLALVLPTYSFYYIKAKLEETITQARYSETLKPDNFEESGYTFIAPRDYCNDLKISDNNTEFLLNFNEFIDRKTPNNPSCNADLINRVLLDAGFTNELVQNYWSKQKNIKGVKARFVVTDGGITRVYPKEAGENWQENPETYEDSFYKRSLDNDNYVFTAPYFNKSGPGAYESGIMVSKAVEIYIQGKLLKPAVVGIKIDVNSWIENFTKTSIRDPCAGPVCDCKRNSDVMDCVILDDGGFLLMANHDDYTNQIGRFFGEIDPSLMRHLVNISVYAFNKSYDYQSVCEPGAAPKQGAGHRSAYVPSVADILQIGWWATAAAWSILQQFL
# T3 sequence (P54289 947-1103 partner limits assumed): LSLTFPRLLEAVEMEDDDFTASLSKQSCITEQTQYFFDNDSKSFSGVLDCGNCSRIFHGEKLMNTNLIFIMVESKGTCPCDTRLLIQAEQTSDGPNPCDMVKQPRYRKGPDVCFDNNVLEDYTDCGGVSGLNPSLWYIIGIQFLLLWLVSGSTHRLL
# Summary of the method: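 Doxycycline-induced cells moved to 29 °C on assay day and were loaded with 4.4 μM Fluo-4. They were held in 2 mM KCl (closed state) or 12.5 mM KCl (inactivated state) buffer, pH 7.4, then depolarized with 130 mM KCl. Fluorescence was read 3 min on FLIPR, and IC50 was obtained from logistic fits.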
Structure (SMILES),IC50 (CaV3.2; Table 4),IC50 (CaV3.1; Table 4),IC50 (CaV2.2; Table 4),IC50 (CaV3.2; Table 5),IC50 (CaV3.1; Table 5),IC50 (CaV2.2; Table 5)
"O=C(NCc1cccc(S(=O)(=O)c2cccc(C(F)(F)F)c2)c1)c1ccc(Cl)c(F)c1 [Compound 17, 4-chloro-3-fluoro-N-(3-((3-(trifluoromethyl)phenyl)sulfonyl)benzyl)benzamide]",940 nM,1630 nM,140 nM,–,–,–
"O=C(NCc1ccc(S(=O)(=O)c2cccc(C(F)(F)F)c2)cc1)c1ccc(Cl)c(OC(F)(F)F)c1 [Compound 15, 4-chloro-3-(trifluoromethoxy)-N-(4-((3-(trifluoromethyl)phenyl)sulfonyl)benzyl)benzamide]",490 nM,1390 nM,740 nM,–,–,–
"CC(C)(C(=O)Nc1ccc(Oc2ccc(F)c(C(F)(F)F)c2)nc1)S(=O)(=O)c1cccc(OC(F)(F)F)c1 [Compound 119, N-(6-(4-fluoro-3-(trifluoromethyl)phenoxy)pyridin-3-yl)-2-methyl-2-((3-(trifluoromethoxy)phenyl)sulfonyl)propanamide]",–,–,–,4310 nM,5800 nM,200 nM
"CC(C)S(=O)(=O)c1cc(C(F)(F)F)cnc1C(=O)NCc1ccc(S(=O)(=O)c2cccc(C(F)(F)F)c2)cc1 [Compound 33, 3-(isopropylsulfonyl)-5-(trifluoromethyl)-N-(4-((3-(trifluoromethyl)phenyl)sulfonyl)benzyl)picolinamide]",1010 nM,920 nM,100 nM,–,–,–
"O=C(NCc1ccccc1S(=O)(=O)c1cccc(C(F)(F)F)c1)[C@@H]1C[C@@H](C2CCCCC2)CN1 [Compound 75, (2S,4S)-4-cyclohexyl-N-(2-((3-(trifluoromethyl)phenyl)sulfonyl)benzyl)pyrrolidine-2-carboxamide]",1590 nM,5470 nM,1060 nM,–,–,–
"CC(C)(C(=O)NCc1ccccc1S(=O)(=O)c1cccc(C(F)(F)F)c1)S(=O)(=O)c1cccc(C(F)(F)F)c1 [Compound 227, 2-methyl-2-((3-(trifluoromethyl)phenyl)sulfonyl)-N-(2-((3-(trifluoromethyl)phenyl)sulfonyl)benzyl)propanamide]",–,–,–,350 nM,630 nM,400 nM
"COc1cc(C(=O)NCc2ccc(S(=O)(=O)c3cccc(C(F)(F)F)c3)cc2)cc(Cl)n1 [Compound 14, 2-chloro-6-methoxy-N-(4-((3-(trifluoromethyl)phenyl)sulfonyl)benzyl)isonicotinamide]",430 nM,2380 nM,850 nM,–,–,–
"O=C(NCc1ccc(S(=O)(=O)c2cccc(C(F)(F)F)c2)cc1)c1cc(F)cc(Cl)c1 [Compound 2, 3-chloro-5-fluoro-N-(4-((3-(trifluoromethyl)phenyl)sulfonyl)benzyl)benzamide]",850 nM,1500 nM,950 nM,–,–,–
"CS(=O)(=O)c1cc(C(F)(F)F)ccc1C(=O)NCc1ccc(S(=O)(=O)c2cccc(C(F)(F)F)c2)cn1 [Compound 99, 2-(methylsulfonyl)-4-(trifluoromethyl)-N-((5-((3-(trifluoromethyl)phenyl)sulfonyl)pyridin-2-yl)methyl)benzamide]",1320 nM,1270 nM,910 nM,–,–,–
"O=C(NCc1cccc(S(=O)(=O)c2cccc(C(F)(F)F)c2)c1)c1ccc(C(F)(F)F)cn1 [Compound 20, 5-(trifluoromethyl)-N-(3-((3-(trifluoromethyl)phenyl)sulfonyl)benzyl)picolinamide]",930 nM,1810 nM,230 nM,–,–,–
"CC(C)(C(=O)NCC(O)c1ccc(C(F)(F)F)cc1)S(=O)(=O)c1cccc(C(F)(F)F)c1 (stereo not drawn) [Compound 140, N-(2-hydroxy-2-(4-(trifluoromethyl)phenyl)ethyl)-2-methyl-2-((3-(trifluoromethyl)phenyl)sulfonyl)propanamide]",–,–,–,5090 nM,8220 nM,410 nM
"O=C(NCc1ccc(S(=O)(=O)c2cccc(C(F)(F)F)c2)cc1)c1ccnc(C(F)(F)F)c1 [Compound 16, 2-(trifluoromethyl)-N-(4-((3-(trifluoromethyl)phenyl)sulfonyl)benzyl)isonicotinamide]",640 nM,1430 nM,940 nM,–,–,–
"CC(C)(C(=O)N1CCC(c2cccc(Cl)c2)CC1)S(=O)(=O)c1cccc(C(F)(F)F)c1 [Compound 133, 1-(4-(3-chlorophenyl)piperidin-1-yl)-2-methyl-2-((3-(trifluoromethyl)phenyl)sulfonyl)propan-1-one]",–,–,–,4960 nM,2160 nM,1160 nM
"O=C(NCc1ccc(S(=O)(=O)c2cccc(C(F)(F)F)c2)cn1)c1cc(F)cc(Cl)c1 [Compound 89, 3-chloro-5-fluoro-N-((5-((3-(trifluoromethyl)phenyl)sulfonyl)pyridin-2-yl)methyl)benzamide]",1740 nM,1580 nM,970 nM,–,–,–
"CC(C)S(=O)(=O)c1cc(C(F)(F)F)cnc1C(=O)NCc1cccc(S(=O)(=O)c2cccc(C(F)(F)F)c2)c1 [Compound 25, 3-(isopropylsulfonyl)-5-(trifluoromethyl)-N-(3-((3-(trifluoromethyl)phenyl)sulfonyl)benzyl)picolinamide]",1740 nM,1580 nM,170 nM,–,–,–
"O=C(NCc1ccc(S(=O)(=O)c2cccc(C(F)(F)F)c2)cn1)c1ccc(C(F)(F)F)cn1 [Compound 91, 5-(trifluoromethyl)-N-((5-((3-(trifluoromethyl)phenyl)sulfonyl)pyridin-2-yl)methyl)picolinamide]",1290 nM,1850 nM,840 nM,–,–,–
"CS(=O)(=O)c1cc(C(F)(F)F)ccc1C(=O)NCc1ccc(S(=O)(=O)c2cccc(C(F)(F)F)c2)cc1 [Compound 11, 2-(methylsulfonyl)-4-(trifluoromethyl)-N-(4-((3-(trifluoromethyl)phenyl)sulfonyl)benzyl)benzamide]",590 nM,1070 nM,410 nM,–,–,–
"CS(=O)(=O)c1cc(C(F)(F)F)ccc1C(=O)NCc1cccc(S(=O)(=O)c2cccc(C(F)(F)F)c2)c1 [Compound 28, 2-(methylsulfonyl)-4-(trifluoromethyl)-N-(3-((3-(trifluoromethyl)phenyl)sulfonyl)benzyl)benzamide]",730 nM,1510 nM,190 nM,–,–,–
"O=C(NCc1cccc(S(=O)(=O)c2cccc(C(F)(F)F)c2)c1)c1ccnc(C(F)(F)F)n1 [Compound 27, 2-(trifluoromethyl)-N-(3-((3-(trifluoromethyl)phenyl)sulfonyl)benzyl)pyrimidine-4-carboxamide]",2450 nM,3360 nM,310 nM,–,–,–
"CC(C)(C(=O)N1CCN(c2cc(Cl)cc(Cl)c2)CC1)S(=O)(=O)c1cccc(C(F)(F)F)c1 [Compound 134, 1-(4-(3,5-dichlorophenyl)piperazin-1-yl)-2-methyl-2-((3-(trifluoromethyl)phenyl)sulfonyl)propan-1-one]",–,–,–,7580 nM,8690 nM,1160 nM
"O=C(NCc1ccc(S(=O)(=O)c2cccc(C(F)(F)F)c2)cc1)c1cnc(C(F)(F)F)nc1 [Compound 8, 2-(trifluoromethyl)-N-(4-((3-(trifluoromethyl)phenyl)sulfonyl)benzyl)pyrimidine-5-carboxamide]",920 nM,2140 nM,510 nM,–,–,–
"O=C(NCc1cccc(S(=O)(=O)c2cccc(C(F)(F)F)c2)c1)c1cnc(C(F)(F)F)nc1 [Compound 26, 2-(trifluoromethyl)-N-(3-((3-(trifluoromethyl)phenyl)sulfonyl)benzyl)pyrimidine-5-carboxamide]",1180 nM,1880 nM,580 nM,–,–,–
"CS(=O)(=O)c1cc(C(F)(F)F)ccc1C(=O)NCc1ccccc1S(=O)(=O)c1cccc(C(F)(F)F)c1 [Compound 47, 2-(methylsulfonyl)-4-(trifluoromethyl)-N-(2-((3-(trifluoromethyl)phenyl)sulfonyl)benzyl)benzamide]",2130 nM,270 nM,590 nM,–,–,–
"O=C(NCc1ccc(S(=O)(=O)c2cccc(C(F)(F)F)c2)cc1)c1ccc(C(F)(F)F)nc1 [Compound 3, 6-(trifluoromethy)-N-(4-((3-(trifluoromethyl)phenyl)sulfonyl)benzyl)nicotinamide]",650 nM,1340 nM,510 nM,–,–,–
"O=C1c2cc(C(F)(F)F)nn2CCN1Cc1cccc(S(=O)(=O)c2cccc(C(F)(F)F)c2)c1 [Compound 34, 2-(trifluoromethyl)-5-(3-((3-(trifluoromethyl)phenyl)sulfonyl)benzyl)-6,7-dihydropyrazolo[1,5-a]pyrazin-4(5H)-one]",970 nM,1630 nM,590 nM,–,–,–
"CC(C)(C(=O)NC1CCN(c2ccc(C(F)(F)F)cc2)CC1)S(=O)(=O)c1cccc(C(F)(F)F)c1 [Compound 137, 2-methyl-N-(1-(4-(trifluoromethyl)phenyl)piperidin-4-yl)-2-((3-(trifluoromethyl)phenyl)sulfonyl)propanamide]",–,–,–,3000 nM,4530 nM,1610 nM
